Laboratory results as given in patent US9656945B2, “3-acyl-ingenols II” (LEO LABORATORIES LIMITED, priority 2010, dated 2017).
Like-named read-outs stand apart in the source and are kept apart here.

What was measured:
Assay type in all cases: cell-based
[1] = system: PMN's (polymorphonuclear leukocytes); assay: Neutrophil oxidative burst assay; conditions: Leukocyte, 40 min, read-out: Neutrophil oxidative burst Rel EC50 range
Procedure: PMN's (polymorphonuclear leukocytes) were isolated and purified from fresh buffy coats by sequential sedimentation, density centrifugation and lysis of contaminating erythrocytes. Buffy coats were incubated with 2% methocel for 30-45 min to differentially sediment red blood cells. The leukocyte-rich supernatant was transferred to lymphoprep tubes to remove mononuclear cells by density centrifugation (400×g, 30 min). The pellet was resuspended and any remaining erythrocytes lysed using 0.2% NaCl for 30 sec before restoring isotonicity by the addition of 1.2% NaCl. This step was repeated until the cell pellet appears relatively free of red blood cells. Cells were resuspended in DPBS (Dulbecco's Phosphate Buffered Saline) (w.o. Ca^2+, Mg^2+) and the concentration adjusted to 1.4×10^6 cells/ml in HBSS (Hanks Balanced Salt solution) (w Ca^2+, Mg^2+) containing 0.1% BSA (Bovine Serum Albumin) and 5 mM glucose just prior to assay initiation. Titrated reference and test compounds were pre-mixed with HE (Hydroethidine) (10 μM final assay concentration) before addition to 96-well plates containing 2.5×10^5 cells. Following 40 min incubation at RT, changes in the respiratory burst was estimated by measuring fluorescence at 579 nm (excitation: 485 nm) using an Envision plate reader.
Test compound titration curves were fitted to a four-parameter sigmoidal curve after normalizing the effect of the test compound to the effect of the positive control (5×10^−7 M PEP0005). Rel EC50 denotes the concentration of test compound producing an effect that is midway between the fitted top and bottom. Abs EC50 is the concentration of test compound that provokes a response corresponding to 50% of the maximal effect associated with the positive control (5×10^−7 M PEP0005).

[2] = system: Primary human epidermal keratinocytes, HeKa; assay: HeKa cytokine release (IL-8) assay
Procedure: Primary human epidermal keratinocytes, HeKa, were seeded (10.000 cells/well) in 96-well plates the day before the assay. Test compounds were diluted in DMSO (dimethyl sulfoxide) and further diluted in assay medium and pipetted into wells of 96 well-plates containing HeKa cells. The plates were incubated for 6 h at 37° C. in humidified air with 5% CO2. Plates are centrifuged briefly to spin down cells at 4° C., the supernatant was removed and analysed by Meso Scale Discovery (MSD) 4-spot cytokine assay (Pro-inflammatory II Ultra Sensitive kit, MSD, MD, USA). The MSD assay employs a sandwich immunoassay format where capture antibodies were coated in a patterned array on the bottom of the wells of a 4-Spot-Multi-MSD plate. Standard samples were incubated in the MULTI-SPOT plates as well, and the cytokine (IL-8) binds to its corresponding capture antibody spot. The cytokine level was quantitated on a SECTOR™ Imager using a cytokine-specific Detection Antibody labelled with MSD SULFO-TAG™ reagent.
Test compound titration curves were fitted to a four-parameter sigmoidal curve after normalizing the effect of the test compound to the effect of the positive control (1.5×10^−7 M PEP0005). Rel EC50 denotes the concentration of test compound producing an effect that is midway between the fitted top and bottom.

[3] = system: HeLa cells (ATCC CCL-002); assay: Necrosis assay; conditions: Homo sapiens, 0.5 h, read-out: HeLa necrosis EC50 range
Procedure: HeLa cells (ATCC CCL-002) were grown in minimal essential medium (Invitrogen catalog no. 42360) containing 10% fetal bovine serum, 100 IU/ml penicillin and 100 μg/ml streptomycin. 4,000-6,000 cells were seeded into 96-well black ViewPlates-plates, clear bottom, (Perkin Elmer) in 100 μl medium and incubated overnight. Compounds were dissolved and pre-diluted in DMSO in 96-well polypropylene plates (Greiner) in a concentration range of 15 μM to 600 μM. At the time of the experiment cell plates were placed on heating blocks at 37° C., medium was removed and 40 μl fresh, pre-warmed medium was added per well. Cells were incubated for 15 min before addition of compounds. In parallel, 3 μl of compounds were diluted with 197 μl growth medium on a Tecan freedom-EVO pipetting station using 250 μl/s pipetting speed, in order to ensure effective mixing of the highly concentrated compound solutions with the aqueous phase. These pre-dilution plates were then equilibrated on heating blocks at 37° C. for 10 min. 80 μl pre-diluted compound were transferred manually to the corresponding wells containing HeLa cells yielding compound concentrations of 10 μM to 400 μM. Control conditions were 1% DMSO in growth medium (100% viability) and 400 μM ingenol mebutate in growth medium (0% viability). Plates were incubated on the heating blocks at 37° C. for 30 min. At the end of the incubation 10 μl PrestoBlue reagent (Invitrogen) were added to each well, plates were sealed with black seal, followed by incubation at 37° C. for 10 min with gentle shaking (150 rpm). Subsequently, plates were placed at room temperature for 20-30 min. Plates were read immediately after on an Envision Fluorescence reader (Perkin Elmer) with excitation at 535 nm and emission at 630 nm. Test compound titration curves were fitted to a four-parameter sigmoidal curve after normalizing the effect of the test compound to the effect of the positive control (4 10^−4 M PEP0005/ingenol mebutate). AbsEC50 denotes the concentration of test compound producing 50% effect.

[4] = 6 h, read-out: HeKa cytokine release (IL-8) Rel EC50 range

| Compound | EC50 [1] [nM] | EC50 [2, 4] [nM] | EC50 [3] [µM] | EC50 ([1]; 40 min incubation at RT, normalized to positive control 5×10^−7 M PEP0005) [nM] | EC50 ([2]; 6 h at 37° C., normalized to positive control 1.5×10^−7 M PEP0005, read-out: HeKa cytokine release (IL-8) Rel EC50 range) [nM] | EC50 ([3]; 30 min at 37° C., PrestoBlue, normalized to 4 10^−4 M PEP0005/ingenol mebutate) [µM] |
| --- | --- | --- | --- | --- | --- | --- |
| CC1=C[C@]23C(=O)[C@@H](C=C(CO)[C@@H](O)[C@]2(O)[C@H]1OC(=O)c1c(C)cccc1NCc1ccccc1)[C@H]1[C@@H](C[C@H]3C)C1(C)C [Compound 332, Ingenol 3-(2-benzylamino-6-methyl-benzoate)] | 20 to 100 | < 20 | < 150 | – | – | – |
| CNc1cccc(Cl)c1C(=O)O[C@H]1C(C)=C[C@]23C(=O)[C@@H](C=C(CO)[C@@H](O)[C@]12O)[C@H]1[C@@H](C[C@H]3C)C1(C)C [Compound 342, Ingenol 3-(2-chloro-6-methylamino-benzoate)] | 20 to 100 | < 20 | < 150 | – | – | – |
| COc1ccc(C(=O)O[C@H]2C(C)=C[C@]34C(=O)[C@@H](C=C(CO)[C@@H](O)[C@]23O)[C@H]2[C@@H](C[C@H]4C)C2(C)C)cc1 [Compound 313, Ingenol 3-(4-methoxy-benzoate)] | < 20 | < 20 | < 150 | – | – | – |
| CC1=C[C@]23C(=O)[C@@H](C=C(CO)[C@@H](O)[C@]2(O)[C@H]1OC(=O)C1(C)CCCCC1)[C@H]1[C@@H](C[C@H]3C)C1(C)C [Compound 308, Ingenol 3-(1-methyl-cyclohexanecarboxylate)] | < 20 | < 20 | < 150 | – | – | – |
| CC1=C[C@]23C(=O)[C@@H](C=C(CO)[C@@H](O)[C@]2(O)[C@H]1OC(=O)c1ccccc1OC(C)C)[C@H]1[C@@H](C[C@H]3C)C1(C)C [Compound 324, Ingenol 3-(2-isopropoxy-benzoate)] | < 20 | < 20 | < 150 | – | – | – |
| CNc1cccc(F)c1C(=O)O[C@H]1C(C)=C[C@]23C(=O)[C@@H](C=C(CO)[C@@H](O)[C@]12O)[C@H]1[C@@H](C[C@H]3C)C1(C)C [Compound 343, Ingenol 3-(2-fluoro-6-methylamino-benzoate)] | < 20 | < 20 | < 150 | – | – | – |
| COC(=O)C1(C(=O)O[C@H]2C(C)=C[C@]34C(=O)[C@@H](C=C(CO)[C@@H](O)[C@]23O)[C@H]2[C@@H](C[C@H]4C)C2(C)C)CC1 [Compound 306, Ingenol 3-(1-methoxycarbonyl-cyclopropylcarboxylate)] | 20 to 100 | > 100 | > 350 | – | – | – |
| CC1=C[C@]23C(=O)[C@@H](C=C(CO)[C@@H](O)[C@]2(O)[C@H]1OC(=O)c1c(N)cccc1Cl)[C@H]1[C@@H](C[C@H]3C)C1(C)C [Compound 340, Ingenol 3-(2-amino-6-chloro-benzoate)] | < 20 | 20 to 100 | < 150 | – | – | – |
| CC1=C[C@]23C(=O)[C@@H](C=C(CO)[C@@H](O)[C@]2(O)[C@H]1OC(=O)c1c(C)cccc1C)[C@H]1[C@@H](C[C@H]3C)C1(C)C [Compound 315, Ingenol 3-(2,6-dimethyl-benzoate)] | < 20 | 20 to 100 | < 150 | – | – | – |
| COc1cccc(OC)c1C(=O)O[C@H]1C(C)=C[C@]23C(=O)[C@@H](C=C(CO)[C@@H](O)[C@]12O)[C@H]1[C@@H](C[C@H]3C)C1(C)C [Compound 316, Ingenol 3-(2,6-dimethoxy-benzoate)] | 20 to 100 | 20 to 100 | 150 to 350 | – | – | – |
| CC1=C[C@]23C(=O)[C@@H](C=C(CO)[C@@H](O)[C@]2(O)[C@H]1OC(=O)c1ccccc1C(C)C)[C@H]1[C@@H](C[C@H]3C)C1(C)C [Compound 323, Ingenol 3-(2-isopropyl-benzoate)] | < 20 | < 20 | < 150 | – | – | – |
| CC1=C[C@]23C(=O)[C@@H](C=C(CO)[C@@H](O)[C@]2(O)[C@H]1OC(=O)c1c(C)cccc1N)[C@H]1[C@@H](C[C@H]3C)C1(C)C [Compound 335, Ingenol 3-(2-amino-6-methyl-benzoate)] | < 20 | < 20 | < 150 | – | – | – |
| CC1=C[C@]23C(=O)[C@@H](C=C(CO)[C@@H](O)[C@]2(O)[C@H]1OC(=O)c1ccccc1Oc1ccccc1)[C@H]1[C@@H](C[C@H]3C)C1(C)C [Compound 322, Ingenol 3-(2-phenoxy-benzoate)] | < 20 | < 20 | < 150 | – | – | – |
| CC1=C[C@]23C(=O)[C@@H](C=C(CO)[C@@H](O)[C@]2(O)[C@H]1OC(=O)c1ccccc1Br)[C@H]1[C@@H](C[C@H]3C)C1(C)C [Compound 321, Ingenol 3-(2-bromo-benzoate)] | < 20 | < 20 | < 150 | – | – | – |
| CC1=C[C@]23C(=O)[C@@H](C=C(CO)[C@@H](O)[C@]2(O)[C@H]1OC(=O)c1ccccc1N)[C@H]1[C@@H](C[C@H]3C)C1(C)C [Compound 330, Ingenol 3-(2-amino-benzoate)] | – | – | – | < 20 | < 20 | 150 to 350 |
| CC1=C[C@]23C(=O)[C@@H](C=C(CO)[C@@H](O)[C@]2(O)[C@H]1OC(=O)c1ccc(F)cc1F)[C@H]1[C@@H](C[C@H]3C)C1(C)C [Compound 314, Ingenol 3-(2,4-difluoro-benzoate)] | < 20 | < 20 | < 150 | – | – | – |
| COc1ccccc1C(=O)O[C@H]1C(C)=C[C@]23C(=O)[C@@H](C=C(CO)[C@@H](O)[C@]12O)[C@H]1[C@@H](C[C@H]3C)C1(C)C [Compound 312, Ingenol 3-(2-methoxy-benzoate)] | < 20 | 20 to 100 | < 150 | – | – | – |
| CC1=C[C@]23C(=O)[C@@H](C=C(CO)[C@@H](O)[C@]2(O)[C@H]1OC(=O)c1ccccc1-c1ccccc1)[C@H]1[C@@H](C[C@H]3C)C1(C)C [Compound 320, Ingenol 3-(2-phenyl-benzoate)] | < 20 | < 20 | < 150 | – | – | – |
| CC1=C[C@]23C(=O)[C@@H](C=C(CO)[C@@H](O)[C@]2(O)[C@H]1OC(=O)c1c(C)cc(C)cc1C)[C@H]1[C@@H](C[C@H]3C)C1(C)C [Compound 325, Ingenol 3-(2,4,6-trimethyl-benzoate)] | < 20 | < 20 | < 150 | – | – | – |
